Test results as given in patent US20230172950A1 (priority 2020, published 2023).

What was measured:
[1] = in vivo; cited from earlier work
[2] = system: lymphocytes, monocytes, NKT cells, T cells, dendritic cells; conditions: in vivo, HED of 18 mg/kg and higher
Whole Blood = test: Ex vivo whole blood incubation (Study 6), immune cell counts; assay type: cell-based; conditions: concentrations between 100 uM up to 500 uM
Protocol: (§1) The profound in vivo activity that we observe in naïve mice and in cancer models must be mediated through the mobilized supercharged Natural Killer T cells, T cells and dendritic cells after AVM0703 HED 6 mg/kg and higher.

Splenocytes = test: Ex vivo splenocyte incubation (Study 24), viability by flow cytometry; assay type: cell-based; conditions: concentrations between 100 uM up to 500 uM
Protocol: as §1
Splenocytes were cultured for 16 hours prior to assay execution.

| SMILES | biologic half-life [1] | effects on colon, pancreas or bone [2] | response of ex vivo whole blood (Whole Blood) | response of isolated splenocytes (Splenocytes) |
| --- | --- | --- | --- | --- |
| C[C@]12C=CC(=O)C=C1CC[C@@H]1[C@@H]2C(=O)C[C@@]2(C)[C@H]1CC[C@]2(O)C(=O)CO [prednisone] | about 20 hours | – | – | – |
| C[C@@H]1C[C@H]2[C@@H]3CCC4=CC(=O)C=C[C@]4(C)[C@@]3(F)[C@@H](O)C[C@]2(C)[C@@]1(O)C(=O)CO [dexamethasone base, dexamethasone] | – | no effects | no response | no response |
